Assay results published in paper PMC11784096, “Synthesis, antibacterial evaluation and in silico studies of novel 2-(benzo[d]thiazol-2-yl)-N-arylacetamides and their derivatives as potential DHFR inhibitors” (BMC Chemistry, 2025).
Converted amounts (≈) assume the structure as drawn. Read-outs that look alike come from different tables or passages of the source.

What was measured:
[1] = tested on: E. coli; assay: Agar diffusion method, inhibition zone diameter; assay type: cell-based, Escherichia coli; conditions: Gram-negative
Description: (§1) The bacterial growth inhibition activity of most of the newly synthesized compounds was examined against different Gram-positive and Gram-negative strains. The Agar diffusion method was used to assess the antibacterial and antifungal activity. The Gram-negative strains were: E. coli, K. pneumonia, P. aeruginosa and A. baumannii, the Gram-positive strains were: St. aureus, St. mutans and the standard antibiotics were gentamicin, tigecycline and ampicillin.
(§2) The agar-based media plate surface was inoculated by spreading a volume of the microbial inoculum over the entire agar surface.
(§3) Using a sterile cork borer or a tip, a hole with a diameter of 6 to 8 mm was made.
(§4) Using a micropipette, (20 µL) volume of the antimicrobial agent or extract solution at the desired concentration was introduced into the well.
(§5) The inoculated plates were incubated under suitable conditions depending upon the tested microorganism. The antimicrobial agent diffused through the agar medium and inhibited the growth of the microbial strain tested.
(§6) After a suitable incubation period (16 to 48 hours) according to the optimum growth conditions, the resulting inhibition zone diameters (in mm) around the wells were measured to the nearest whole millimeter at the point at which there is a prominent reduction in growth. If growth is insufficient at the recommended times, the plates should be re-incubated and read later.

[2] = tested on: K. pneumonia; assay: Agar diffusion method, inhibition zone diameter; assay type: cell-based, Klebsiella pneumonia; conditions: Gram-negative
Description: as §1, §2, §3, §4, §5, §6

[3] = tested on: St. aureus; assay: Agar diffusion method, inhibition zone diameter; assay type: cell-based, Staphylococcus aureus; conditions: Gram-positive
Description: as §1, §2, §3, §4, §5, §6

[4] = tested on: E. coli; assay: Minimum inhibition concentration, serial dilution; assay type: cell-based, Escherichia coli; conditions: Escherichia coli, 37 °C
Experimental: (§7) For each strain, three to five isolated colonies were selected from the fresh agar plate and transferred into a tube containing 3-4 ml of the sterile broth medium. The bacterial suspension was mixed well and incubated at 35-37 °C for 2-6 hours. […] After that, 1 mg of the tested compound (antimicrobial agent) was dissolved in 1 ml of DMSO and a two-fold serial dilution was done using a broth medium. A fixed volume of the prepared bacterial inoculum was added to each tube and incubated at 37 °C for 16-20 hours. The MIC is defined as the lowest concentration of the antimicrobial agent that inhibits visible growth of the tested isolate as observed with the unaided eye.

[5] = tested on: K. pneumonia; assay: Minimum inhibition concentration, serial dilution; assay type: cell-based, Klebsiella pneumonia; conditions: Klebsiella pneumoniae, 37 °C
Experimental: as §7

[6] = tested on: A. baumannii; assay: Minimum inhibition concentration, serial dilution; assay type: cell-based, Acinetobacter baumannii; conditions: Acinetobacter baumannii, 37 °C
Experimental: as §7

[7] = tested on: St. aureus; assay: Minimum inhibition concentration, serial dilution; assay type: cell-based; conditions: Staphylococcus aureus, 37 °C
Experimental: as §7

[8] = tested on: St. mutans; assay: Minimum inhibition concentration, serial dilution; assay type: cell-based; conditions: Streptococcus mutans, 37 °C
Experimental: as §7

[9] = tested on: any bacterial strain; assay: Agar diffusion method, stated for all strains together; assay type: cell-based; conditions: in words
Description: as §1, §2, §3, §4, §5, §6

[10] = tested on: P. aeruginosa; assay: Agar diffusion method, inhibition zone diameter; assay type: cell-based, Pseudomonas aeruginosa; conditions: Gram-negative
Description: as §1, §2, §3, §4, §5, §6

[11] = tested on: A. baumannii; assay: Agar diffusion method, inhibition zone diameter; assay type: cell-based, Acinetobacter baumannii; conditions: Gram-negative
Description: as §1, §2, §3, §4, §5, §6

[12] = tested on: St. mutans; assay: Agar diffusion method, inhibition zone diameter; assay type: cell-based; conditions: Gram-positive
Description: as §1, §2, §3, §4, §5, §6

[13] = tested on: P. aeruginosa; assay: Minimum inhibition concentration, serial dilution; assay type: cell-based, Pseudomonas aeruginosa; conditions: Pseudomonas aeruginosa, 37 °C
Experimental: as §7

[14] = target: dihydrofolate reductase in Escherichia coli (Escherichia coli, UniProt P0ABQ4); assay: In vitro DHFR inhibition assessment; assay type: biochemical; conditions: for inhibitory activity against DHFR relative to trimethoprim: fold of trimethoprim, in words
Chain of dihydrofolate reductase in Escherichia coli (P0ABQ4 whole entry): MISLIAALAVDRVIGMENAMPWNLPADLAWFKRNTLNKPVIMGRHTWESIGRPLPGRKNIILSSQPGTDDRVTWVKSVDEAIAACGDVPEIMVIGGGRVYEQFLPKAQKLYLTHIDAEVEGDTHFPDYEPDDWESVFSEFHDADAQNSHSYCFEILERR

[15] = tested on: all tested Gram-negative and Gram-positive strains; assay: Minimum inhibition concentration, stated for all tested strains together; assay type: cell-based
Experimental: as §7

[16] = tested on: DHFR; design: method as in PMID 28789907; conditions: read-out: IC50 DHFR inhibition; cited from earlier work
[17] = tested on: DHFR; design: method as in doi:10.1007/s00706-017-2032-7; conditions: read-out: IC50 against DHFR activity; cited from earlier work
[18] = tested on: St. aureus, B. subtilis, K. pneumonia and E. coli; design: method as in doi:10.1007/s12039-020-01844-8; conditions: as printed in Fig. 2; cited from earlier work
[19] = tested on: E. coli and P. aeruginosa; design: method as in earlier work; conditions: cited from earlier work

MIC [7] [µg/mL]	SMILES	IZD E. coli [1] [mm]	IZD K. pneumonia [2] [mm]	IZD St. aureus [3] [mm]	MIC [4] [µg/mL]	MIC [5] [µg/mL]	MIC [6] [µg/mL]	MIC [8] [µg/mL]	IZD P. aeruginosa [10] [mm]	IZD A. baumannii [11] [mm]	IZD St. mutans [12] [mm]	MIC [13] [µg/mL]	further results
0.25 (≈ 0.932 µM)	O=C(Cc1nc2ccccc2s1)Nc1ccccc1 [2a, 2-(Benzo[d]thiazol-2-yl)-N-phenylacetamide]	34 ± 0.5	34 ± 0.8	31 ± 1	0.25 (≈ 0.932 µM)	0.125 (≈ 0.466 µM)	0.125 (≈ 0.466 µM)	0.0625 (≈ 0.233 µM)					
	Cc1ccc(NC(=O)Cc2nc3ccccc3s2)cc1 [2b, 2-(Benzo[d]thiazol-2-yl)-N-(p-tolyl)acetamide]												antibacterial activity against any bacterial strain [9]: no activity
0.0625 (≈ 0.139 µM)	COc1ccc(C=C(C(=O)Nc2ccc(Cl)cc2)c2nc3ccccc3s2)cc1OC [4k, 2-(Benzo[d]thiazol-2-yl)-N-(4-chlorophenyl)-3-(3,4-dimethoxyphenyl)acrylamide]	22 ± 1.1	25 ± 1.1	25 ± 1.1	0.125 (≈ 0.277 µM)	0.0625 (≈ 0.139 µM)	0.0312 (≈ 0.0693 µM)		20 ± 1	23 ± 1.1	18 ± 1.1	0.125 (≈ 0.277 µM)	
	Cc1ccc(NC(=O)C(=Cc2ccc(OC(=O)c3ccccc3)cc2)c2nc3ccccc3s2)cc1 [4n, 4-(2-(Benzo[d]thiazol-2-yl)-3-oxo-3-(p-tolylamino)prop-1-en-1-yl)phenylbenzoate]												antibacterial activity against any bacterial strain [9]: no antibacterial activity
	Cc1ccc(-n2c(N)c(C#N)c(-c3ccccc3)c(-c3nc4ccccc4s3)c2=O)cc1 [11c, 2-Amino-5-(benzo[d]thiazol-2-yl)-6-oxo-4-phenyl-1-(p-tolyl)-1,6-dihydropyridine-3-carbonitrile]	35 ± 1	36 ± 1		0.0315 (≈ 0.0725 µM)	0.0315 (≈ 0.0725 µM)	0.0315 (≈ 0.0725 µM)		35 ± 1	35 ± 1		0.0315 (≈ 0.0725 µM)	IC50 [14]: 15 ± 0.785 µM; inhibitory activity against DHFR relative to trimethoprim [14]: half
0.0625 (≈ 0.179 µM)	CC1(C)S[C@@H]2[C@H](NC(=O)[C@H](N)c3ccccc3)C(=O)N2[C@H]1C(=O)O [Ampicillin, reference compound]			29 ± 0.2				0.0625 (≈ 0.179 µM)			22 ± 0.1		
	Clc1ccc(/C=N/c2nc3ccccc3s2)cc1 [II]												IC50 [16]: 0.0312 µM
	Nc1nc(N)c(-c2nc3ccccc3s2)c(CCCOC(=O)CCl)n1 [IV]												IC50 [17]: 1.3 µM
	O=[N+]([O-])c1cccc(/C=N/c2nc3ccccc3s2)c1 [I]												IC50 [16]: 0.0415 µM
	O=C1CSC(c2cccc(Cl)c2Cl)N1c1nc2cc(OC(F)(F)F)ccc2s1 (stereo not shown) [VII]												MIC [18]: 100 to 250 µg/mL
	CC(=O)Nc1cc(-c2nc3ccccc3s2)ccc1OCC(=O)N/N=C/c1ccc(O)cc1 [V]												MIC [19]: 0.2 µg/mL (≈ 0.434 µM)

SMILES	MIC [7] [µg/mL]	IZD E. coli [1] [mm]	IZD K. pneumonia [2] [mm]	IZD St. aureus [3] [mm]	MIC [4] [µg/mL]	MIC [5] [µg/mL]	MIC [6] [µg/mL]	MIC [8] [µg/mL]	IZD P. aeruginosa [10] [mm]	IZD A. baumannii [11] [mm]	IZD St. mutans [12] [mm]	MIC [13] [µg/mL]	further results
O=C(Cc1nc2ccccc2s1)Nc1ccc(Cl)cc1 [2c, 2-(Benzo[d]thiazol-2-yl)-N-(4-chlorophenyl)acetamide]	0.0312 (≈ 0.103 µM)	35 ± 1	35 ± 1	28 ± 1	0.0312 (≈ 0.103 µM)	0.0312 (≈ 0.103 µM)	0.0312 (≈ 0.103 µM)	0.0312 (≈ 0.103 µM)	36 ± 1	35 ± 1	25 ± 1	0.0312 (≈ 0.103 µM)	IC50 [14]: 3.8 ± 0.198 µM; inhibitory activity against DHFR relative to trimethoprim [14]: about two-fold; MIC [15]: 0.0312 µg/mL (≈ 0.103 µM)
O=C(Nc1ccccc1)C(=Cc1ccc(OC(=O)c2ccccc2)cc1)c1nc2ccccc2s1 [4m, 4-(2-(Benzo[d]thiazol-2-yl)-3-oxo-3-(phenylamino)prop-1-en-1-yl)phenylbenzoate]	0.0312 (≈ 0.0656 µM)	35 ± 1.1	35 ± 1.1	25 ± 1.1	0.0312 (≈ 0.0656 µM)	0.0312 (≈ 0.0656 µM)	0.0312 (≈ 0.0656 µM)	0.0312 (≈ 0.0656 µM)	30 ± 1	35 ± 1.1	28 ± 1.1	0.0312 (≈ 0.0656 µM)	IC50 [14]: 2.44 ± 0.128 µM; inhibitory activity against DHFR relative to trimethoprim [14]: about four-fold; MIC [15]: 0.0312 µg/mL (≈ 0.0656 µM)
